Reference: patent US8188100B2, “Adenosine derivatives as A2A receptor agonists” (Novartis AG, priority 2006, dated 2012)
pKi: −log10 of the molar value.

Molecular target: adenosine A2A receptor (Homo sapiens, UniProt P29274)
Experiment: adenosine A2A receptor agonist assay (method of Murphree et al.)
Type: binding
Conditions: method described by Murphree et al., Mol Pharmacol, Vol. 61, pp. 455-462 (2002)
Excerpt: Compounds of formula (I) and their pharmaceutically acceptable salts are useful as pharmaceuticals. In particular, they activate the adenosine A2A receptor, i.e., they act as A2A receptor agonists.

Sequence of adenosine A2A receptor (P29274 whole entry): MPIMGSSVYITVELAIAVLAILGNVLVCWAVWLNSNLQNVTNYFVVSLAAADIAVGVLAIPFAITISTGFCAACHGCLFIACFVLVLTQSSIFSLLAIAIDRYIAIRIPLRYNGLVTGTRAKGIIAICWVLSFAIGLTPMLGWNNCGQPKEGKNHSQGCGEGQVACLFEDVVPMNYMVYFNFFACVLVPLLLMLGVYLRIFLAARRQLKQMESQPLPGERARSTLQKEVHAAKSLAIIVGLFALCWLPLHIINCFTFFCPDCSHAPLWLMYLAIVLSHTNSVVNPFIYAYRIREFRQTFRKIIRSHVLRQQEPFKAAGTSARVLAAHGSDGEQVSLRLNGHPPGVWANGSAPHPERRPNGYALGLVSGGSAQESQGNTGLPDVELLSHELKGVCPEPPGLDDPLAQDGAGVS

pKi: 6.12
SMILES: CCC(=O)N[C@H]1C[C@@H](n2cnc3c(NCC(c4ccccc4)c4ccccc4)nc(N4CC[C@@H](Nc5nc(Cl)nc6c5ncn6[C@@H]5C[C@H](NC(=O)CC)[C@@H](O)[C@H]5O)C4)nc32)[C@H](O)[C@@H]1O [Example 1, {(1S,2R,3S,4R)-4-[2-{(R)-3-[2-Chloro-9-((1R,2S,3R,4S)-2,3-dihydroxy-4-propionylamino-cyclopentyl)-9H-purin-6-ylamino]-pyrrolidin-1-yl}-6-(2,2-diphenyl-ethylamino)-purin-9-yl]-2,3-dihydroxy-cyclopentyl}-propionamide]
